Legend:
Assay in all cases: drug sensitivity score (DSS) from 5-dose viability curve (DSS (area-based score, 0 = no response)); higher = more sensitive (stronger viability inhibition); extreme values may be limits of the assay
[1] = system: MDCK wild-type + doxycycline; conditions: doxycycline: 10 ng/mL; 72 h
How it was run: (§1)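 After 72 h at 37 °C on 384-well plates pre-spotted with 528 oncology drugs at five doses (1-10,000 nM), parental and doxycycline-inducible MDCK cells were assessed; both lines had been given 10 ng/mL doxycycline in the medium before seeding at 2000 cells/well. Viability was taken from CellTiter-Glo luminescence scaled per plate to vehicle and positive controls, and drug sensitivity scores were derived from dose-response fits in the Breeze pipeline.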

[2] = system: MDCK p60AmotL2-inducible + doxycycline (p60AmotL2 expressing); conditions: doxycycline: 10 ng/mL; 72 h
How it was run: as §1

[3] = system: MDCK wild-type - doxycycline; conditions: doxycycline: none; 72 h
How it was run: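 Parental MDCK cells without doxycycline were dispensed at 2000 cells/well onto pre-spotted 384-well plates. The plates held an oncology library of 528 drugs at five doses (1-10,000 nM) and were incubated 72 h at 37 °C. Viability was read as CellTiter-Glo luminescence and scaled per plate between vehicle and positive controls. Drug sensitivity scores came from dose-response curve fits in the Breeze pipeline.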

| Structure (SMILES) | drug sensitivity score [1] | drug sensitivity score [2] | drug sensitivity score [3] |
| --- | --- | --- | --- |
| CN[C@@H](C)C(=O)N[C@H]1CN(C(=O)CC(C)C)CC[C@H]2CC[C@@H](C(=O)NC(c3ccccc3)c3ccccc3)N2C1=O [AT-406] | 0.1 | 0 | 0 |
| CC[C@H](CC#N)OC(=O)N[C@@H](C)c1cccc(NC(=O)Nc2ccc(-c3cnco3)c(OC)c2)c1 [AVN944] | 12.6 | 18.5 | 11.1 |
| COc1cc(N2CCN(C)CC2)ccc1Nc1nccc(-c2cn(C)c3cnccc23)n1 [AZ191] | 2.5 | 2.2 | 0 |
| COc1cc(OC2CCN(C)CC2)ccc1Nc1ncc2c(n1)n(C1CCCC1)c(=O)n2C [AZ 3146] | 5.1 | 6.3 | 5.1 |
| CN(C)CCCOc1ccc(-c2ccc3ncc4c(c3c2)n(C2CCOCC2)c(=O)n4C)cn1 [AZD0156] | 0 | 1 | 0 |
| N[C@@H]1CCCN(c2c(/C=C3\SC(=O)NC3=O)cccc2-c2ccccc2)C1 [AZD1208] | 0 | 1 | 0 |
| Cc1cc(Nc2nc(N[C@@H](C)c3ncc(F)cn3)ncc2Cl)[nH]n1 [AZD1480] | 0 | 0.2 | 0 |
| C=CCn1c(=O)c2cnc(Nc3ccc(N4CCN(C)CC4)cc3)nc2n1-c1cccc(C(C)(C)O)n1 [AZD1775] | 15.9 | 12.9 | 12.1 |
| COc1cc2ncnc(Nc3cccc(Cl)c3F)c2cc1OC(=O)N1CCN(C)C[C@H]1C [AZD3759] | 0 | 6.6 | 0 |
| Cc1[nH]nc(C(F)(F)F)c1Cc1sc2c(c1C(=O)N1C[C@](C)(O)CO1)c(=O)n(C)c(=O)n2C(C)C [AZD3965] | 0 | 4.5 | 0 |
| COc1cc(CCc2cc(NC(=O)c3ccc(N4CC(C)NC(C)C4)cc3)n[nH]2)cc(OC)c1 (stereo not drawn) [AZD4547] | 0 | 0 | 0 |
| C[C@@H]1COCCN1c1cc(C2([S@](C)(=N)=O)CC2)nc(-c2cc[nH]c3nccc2-3)n1 [AZD6738] | 3.4 | 6.7 | 1.3 |
| CN(C)C(=O)c1ccc(S(=O)(=O)c2ccc(NC(=O)[C@@](C)(O)C(F)(F)F)c(Cl)c2)cc1 [AZD7545] | 0 | 0 | 0 |
| NC(=O)Nc1cc(-c2cccc(F)c2)sc1C(=O)N[C@H]1CCCNC1 [AZD7762] | 0.2 | 0.3 | 0 |
| COc1ccc(-c2ccc3c(N4CCOC[C@@H]4C)nc(N4CCOC[C@@H]4C)nc3n2)cc1CO [AZD8055] | 17.8 | 22.5 | 14.9 |
| N#Cc1ccc2[nH]c(O)c(-c3ccc(CN4CCOCC4)cn3)c2c1 [AZD-1080] | 0 | 0 | 0 |
| Cc1ncc(-c2ccnc(Nc3ccc(S(C)(=O)=O)cc3)n2)n1C(C)C [AZD-5438] | 13.1 | 9.1 | 9.9 |
| Cc1cc([C@@H](C)Nc2ccccc2C(=O)O)c2nc(N3CCOCC3)cc(=O)n2c1 [AZD-6482] | 0 | 0 | 0 |
| C[C@@H](Nc1cc(F)cc(F)c1)c1cc(C(=O)N(C)C)cc2c(=O)cc(N3CCOCC3)oc12 [AZD-8186] | 0 | 1.4 | 0 |
| CCN1CCN(Cc2ccc(Nc3ncc(F)c(-c4cc(F)c5nc(C)n(C(C)C)c5c4)n3)nc2)CC1 [Abemaciclib] | 5.6 | 7.3 | 3.3 |
| CN(C)Cc1c(C(=O)NCCOc2ccc(C(=O)NO)cc2)oc2ccccc12 [Abexinostat] | 17.5 | 18.8 | 15.6 |
| C[C@]12CC[C@H](O)CC1=CC[C@@H]1[C@@H]2CC[C@]2(C)C(c3cccnc3)=CC[C@@H]12 [Abiraterone] | 0 | 0 | 0 |
| CC#CC(=O)N1CCC[C@H]1c1nc(-c2ccc(C(=O)Nc3ccccn3)cc2)c2c(N)nccn12 [Acalabrutinib] | 0 | 0 | 0 |

| Structure (SMILES) | drug sensitivity score [1] | drug sensitivity score [2] | drug sensitivity score [3] |
| --- | --- | --- | --- |
| COc1cc(C)c(/C=C/C(C)=C/C=C/C(C)=C/C(=O)O)c(C)c1C [Acitretin] | 0 | 0 | 3.6 |
| CN(C)C/C=C/C(=O)Nc1cc2c(Nc3ccc(F)c(Cl)c3)ncnc2cc1O[C@H]1CCOC1 [Afatinib] | 3.5 | 18.3 | 4.2 |
| Cn1ncc(Cl)c1-c1cc(C(=O)N[C@H](CN)Cc2cccc(F)c2)sc1Cl [Afuresertib] | 0 | 0 | 0 |
| COc1cccc2c1C(=O)c1c(O)c3c(c(O)c1C2=O)C[C@@](O)(/C(CO)=N/NC(=O)CCCCCN1C(=O)C=CC1=O)C[C@@H]3O[C@H]1C[C@H](N)[C@H](O)[C@H](C)O1 [Aldoxorubicin] | 8.6 | 11.2 | 4.5 |
| CCc1cc2c(cc1N1CCC(N3CCOCC3)CC1)C(C)(C)c1[nH]c3cc(C#N)ccc3c1C2=O [Alectinib] | 0 | 0 | 0 |
| COc1cc(Nc2ncc3c(n2)-c2ccc(Cl)cc2C(c2c(F)cccc2OC)=NC3)ccc1C(=O)O [Alisertib] | 0 | 10.6 | 0 |
| Oc1ncnc2[nH]ncc12 [Allopurinol] | 0 | 0 | 0 |
| Cc1nc(NC(=O)N2CCC[C@H]2C(N)=O)sc1-c1ccnc(C(C)(C)C(F)(F)F)c1 [Alpelisib] | 0 | 1.6 | 0.7 |
| O=C(Nc1cc(Oc2cc(F)c(NC(=O)C3(C(=O)Nc4ccc(F)cc4)CC3)cc2F)ccn1)C1CC1 [Altiratinib] | 0 | 8 | 0 |
| CN1CC[C@H](c2c(O)cc(O)c3c(=O)cc(-c4ccccc4Cl)oc23)[C@H](O)C1 [Alvocidib] | 20.9 | 18.3 | 21.5 |
| CCN(CC)CCNC(=O)c1c(C)[nH]c(/C=C2\C(=O)Nc3ccc(-c4csc(-c5ccccc5)n4)cc32)c1C [Amcasertib] | 0 | 0 | 0 |
| CCC1(c2ccc(N)cc2)CCC(=O)NC1=O (stereo not drawn) [Aminoglutethimide] | 0 | 0 | 0 |
| COc1cc(NS(C)(=O)=O)ccc1Nc1c2ccccc2nc2ccccc12 [Amsacrine] | 8.8 | 15.3 | 7.6 |
| S=C(NCc1ccc2c(c1)OCO2)N1CCN(c2ncnc3c2oc2ccccc23)CC1 [Amuvatinib] | 3.1 | 6 | 2.3 |
| O=C1CN2Cc3c(ccc(Cl)c3Cl)N=C2N1 [Anagrelide] | 0 | 0 | 0 |
| CC(C)(C#N)c1cc(Cn2cncn2)cc(C(C)(C)C#N)c1 [Anastrozole] | 0 | 0 | 0 |
| CNC(=O)c1ccc(N2C(=S)N(c3cnc(C#N)c(C(F)(F)F)c3)C(=O)C23CCC3)cc1F [Apalutamide] | 0 | 0 | 0 |
| N#CC1(c2ccc(NC(=O)c3cccnc3NCc3ccncc3)cc2)CCCC1 [Apatinib] | 2.7 | 0 | 0 |
| O=C(Nc1ccc(OC(F)(F)Cl)cc1)c1cnc(N2CC[C@@H](O)C2)c(-c2cc[nH]n2)c1 [Asciminib] | 0 | 0 | 0 |
| CC(C)c1c(C(=O)Nc2ccccc2)c(-c2ccccc2)c(-c2ccc(F)cc2)n1CC[C@@H](O)C[C@@H](O)CC(=O)O [Atorvastatin] | 0 | 0.4 | 0 |
| CC(=O)OC[C@H]1O[C@@H]([S-])[C@H](OC(C)=O)[C@@H](OC(C)=O)[C@@H]1OC(C)=O.CCP(CC)CC.[Au+] [Auranofin] | 4.2 | 4.7 | 4.2 |
| CNC(=O)c1ccccc1Sc1ccc2c(/C=C/c3ccccn3)n[nH]c2c1 [Axitinib] | 0 | 5.7 | 0 |
| Nc1ncn([C@@H]2O[C@H](CO)[C@@H](O)[C@H]2O)c(=O)n1 [Azacitidine] | 0.6 | 0.7 | 0.3 |
